This note sets out measurements from PubChem BioAssay AID2060509 (Molecular Pharmacology Branch, DTP, NCI, 2025).

Several values for one entry are separate records, joined by “and”; a condition that tells them apart may be missing. Equal entries are not always repeated.

The assay relates to 485176-168-R4-J1-PDC spheroids with HUVEC/MSC, viability. Description: Anticancer human tumor 485176-168-R4-J1-PDC patient-derived pancreatic adenocarcinoma cell line growth inhibition [GQUAD]. Conditions: for viability, T/C: stronger effect = lower value. The text has this:
DNA G-quadruplex Stabilizer Agents in Combinations in Complex Spheroids
A high-throughput screen of multi-cell type tumor spheroids was designed to identify active combinations of DNA G-quadruplex stabilizer agents and targeted small molecules. Complex spheroids include a stromal component modeled by human endothelial cells (HUVEC) and fibroblasts modeled by human mesenchymal stem cells (MSCs). The concentration ranges selected for each drug and investigational agent were based upon clinically achievable concentrations if the clinical Cmax of the agent was known.
Compounds. The drugs and investigational agents: pidnarulex (CX-5461; NSC782164), APTO-253 (NSC789042), BRACO-19 (NSC847499), peposertib (NSC802822), ceralasertib (NSC780249), elimusertib (NSC800525), camonsertib (NSC841442), AZD-1390 (NSC803789), olaparib (NSC753686), talazoparib (NSC767125), ART-558 (NSC835418), sotorasib (NSC818433), MRTX-1133 (NSC836407), SN-38 (NSC673596), topotecan (NSC609699), etoposide (NSC141540), doxorubicin (NSC123127), gemcitabine (NSC613327), 5-fluorouracil (NSC19893), paclitaxel (NSC125973), vemurafenib (NSC761431), panobinostat (NSC761190), R-306465 (JNJ-16241199; NSC773264), adavosertib (NSC754352), TP-3654 (NSC805149), carboplatin (NSC241240), KSQ-4279 (NSC840948), and staurosporine (NSC755774) were obtained from the National Cancer Institute (NCI) Developmental Therapeutics Program Chemical Repository (34). The FDA-approved anticancer drug set is available from the NCI Developmental Therapeutics Program. […] The stock solutions were prepared in dimethyl sulfoxide (DMSO, Sigma-Aldrich, St. Louis, MO, cat. D2650) at 800-fold the tested concentration and stored at -70 degrees C prior to their use. All drugs and investigational agents were tested over a range starting from a high concentration at or near the clinical Cmax and decreasing in half-log increments. If the clinical Cmax for an agent had not been determined, the highest concentration tested was 10 microM.
2.3 Cell Culture. All cells were maintained in an incubator at 37 degrees C and 5% CO2 with 95% humidity. The PDC lines were cultured according to standard operating procedures established by the NCI PDMR. All PDCs were thawed and cultured in Matrigel-coated flasks prepared with a working solution of 1X Ham's F-12 nutrient mix, without supplementation (Invitrogen, cat. 11765054), 100 U/mL penicillin-streptomycin (Invitrogen, cat. 15140122), and 2.5% Matrigel (Corning Inc., cat. 354248) for the first three passages. The 857933-349-R-J2-PDC line was cultured in 6C/Colon 1B media, which includes advanced DMEM/F-12 (Thermo Fisher Scientific, cat. 12634028), 10 mM HEPES (Thermo Fisher Scientific, cat. 15630080), 1X GlutaMAX supplement (Thermo Fisher Scientific, cat. 35050061), 0.1 mg/mL primocin (InvivoGen, cat. ant-pm-2), 10% defined fetal bovine serum, heat inactivated (HyClone Laboratories Inc., cat. SH30070.03HI), 50% L-WRN conditioned media (ATCC, cat. CRL-3276), 1.25 mM N-Acetyl-L-cysteine (Sigma-Aldrich, cat. A9165), 10 mM nicotinamide (Sigma-Aldrich, cat. N0636), 1X B-27 supplement (Thermo Fisher Scientific, cat. 17504044), 1X N-2 supplement (Thermo Fisher Scientific, cat. 17502048), 10 microM Y-27632 dihydrochloride (Tocris Bioscience, cat. 1254), and 50 ng/mL human EGF recombinant protein (Thermo Fisher Scientific, cat. PHG0311). The 485176-168-R4-J1-PDC line was cultured in Panc media, which includes all 6C/Colon 1B media components plus 100 ng/mL human FGF-10 (Thermo Fisher Scientific, cat. 100-26), 500 nM SB-431542 (Selleckchem, cat. S1067), and gastrin (Tocris, cat. 3006).
[…]

Where [1] appears, read: curve of first compound, second compound 0.0316 µM.
Setting [2] is: curve of first compound, second compound 0.1 µM.
Setting [3] is: curve of first compound, second compound 0.316 µM.
Setting [4] is: curve of first compound, second compound 1 µM.
[5] abbreviates: curve of first compound, second compound 3.16 µM.
[6] abbreviates: curve of first compound, second compound 10 µM.
Where [7] appears, read: second compound 0.0316 µM, first compound 0.0316 µM.
Setting [8] is: second compound 0.0316 µM, first compound 0.316 µM.
Where [9] appears, read: second compound 0.1 µM, first compound 0.0316 µM.
Where [10] appears, read: second compound 0.1 µM, first compound 0.316 µM.
Setting [11] is: second compound 0.316 µM, first compound 0.0316 µM.
[12] abbreviates: second compound 0.316 µM, first compound 0.316 µM.
Setting [13] is: second compound 1 µM, first compound 0.0316 µM.
The mark [14] stands for this setting: second compound 1 µM, first compound 0.316 µM.
Where [15] appears, read: second compound 3.16 µM, first compound 0.0316 µM.
Where [16] appears, read: second compound 3.16 µM, first compound 0.316 µM.
Where [17] appears, read: second compound 10 µM, first compound 0.0316 µM.
Setting [18] is: second compound 10 µM, first compound 0.316 µM.
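Note: spheroids exposed to compounds for seven days before readout.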
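Throughout, for viability, T/C: percent viability relative to DMSO vehicle control wells as 100%.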

For the compound `CC[C@@]1(O)C(=O)OCc2c1cc1n(c2=O)Cc2cc3c(CN(C)C)c(O)ccc3nc2-1` + Cc1cnc(CNC(=O)c2c(=O)c3ccc(N4CCCN(C)CC4)nc3n3c2sc2ccccc23)cn1, the IC50 reads like this: under setting [1], 113 nM; under setting [2], 59.2 nM; under setting [3], 43.4 nM; under setting [4], 10.9 nM; under setting [5], 1.18 nM; under setting [6], below 0.999 nM. In addition, the viability, T/C runs as follows: (second compound 0.0316 µM, first compound 0.000999 µM) 94.4%; (second compound 0.0316 µM, first compound 0.00316 µM) 84.9%; (second compound 0.0316 µM, first compound 0.00999 µM) 87.5%; under setting [7], 70.3%; (second compound 0.0316 µM, first compound 0.0999 µM) 52.8%; under setting [8], 29.3%. Also, the viability, T/C was 75.8% (second compound 0.1 µM, first compound 0.000999 µM); 72.1% (second compound 0.1 µM, first compound 0.00316 µM); 88.9% (second compound 0.1 µM, first compound 0.00999 µM); 60.9% under setting [9]; 44.8% (second compound 0.1 µM, first compound 0.0999 µM); 37.1% under setting [10]. For the same compound, the viability, T/C is 69.3% (second compound 0.316 µM, first compound 0.000999 µM); 62.8% (second compound 0.316 µM, first compound 0.00316 µM); 64% (second compound 0.316 µM, first compound 0.00999 µM); 52.4% under setting [11]; 41.8% (second compound 0.316 µM, first compound 0.0999 µM); 32.2% under setting [12]. In addition, the viability, T/C (second compound 1 µM, first compound 0.000999 µM) was 47.8%; the viability, T/C (second compound 1 µM, first compound 0.00316 µM) was 55.1%; the viability, T/C (second compound 1 µM, first compound 0.00999 µM) is 50.9%; the viability, T/C under setting [13] was 42.4%; the viability, T/C (second compound 1 µM, first compound 0.0999 µM) is 35.9%; the viability, T/C under setting [14] is 33.5%. For the same compound, the viability, T/C reads like this: (second compound 3.16 µM, first compound 0.000999 µM) 49.5%; (second compound 3.16 µM, first compound 0.00316 µM) 49.4%; (second compound 3.16 µM, first compound 0.00999 µM) 39.8%; under setting [15], 41.2%; (second compound 3.16 µM, first compound 0.0999 µM) 34.4%; under setting [16], 30.8%. The viability, T/C by setting is: (second compound 10 µM, first compound 0.000999 µM) 42.7%; (second compound 10 µM, first compound 0.00316 µM) 44.5%; (second compound 10 µM, first compound 0.00999 µM) 41.3%; under setting [17], 36.4%; (second compound 10 µM, first compound 0.0999 µM) 36.3%; under setting [18], 27.5%.
As to `O=c1[nH]cc(F)c(=O)[nH]1`, the viability, T/C (compound 0.0316 µM) is 95.9% and 97.3% and 84.9%; the viability, T/C (compound 0.1 µM) was 85.5% and 91% and 89.7%; the viability, T/C (compound 0.316 µM) is 79.7% and 75.4% and 64%; the viability, T/C (compound 1 µM) was 56.6% and 60.5% and 59.2%; the viability, T/C (compound 3.16 µM) is 48.2% and 46.2% and 45.4%; the viability, T/C (compound 10 µM) was 46.8% and 46.7% and 54.9%. In addition, the IC50 (curve of compound) was 2610 nM and 2750 nM and > 10000 nM.
With `CC1COCCN1c1cc(C2(S(C)(=N)=O)CC2)nc(-c2ccnc3[nH]ccc23)n1` (stereo not given), the viability, T/C reads like this: (compound 0.0316 µM) 91.4% and 102% and 101%; (compound 0.1 µM) 98.7% and 102% and 97.1%; (compound 0.316 µM) 93.1% and 96.5% and 101%; (compound 1 µM) 56% and 70.9% and 59.4%; (compound 3.16 µM) 36.2% and 34.4% and 72.4%; (compound 10 µM) 14.5% and 16.4% and 12.8%. The IC50 (curve of compound) was 1550 nM and 1930 nM and 3980 nM.
Regarding `O=C(c1cc(Cc2n[nH]c(=O)c3ccccc23)ccc1F)N1CCN(C(=O)C2CC2)CC1`, the viability, T/C runs as follows: (compound 0.0316 µM) 94.9% and 101% and 98%; (compound 0.1 µM) 100% and 97.5% and 90.3%; (compound 0.316 µM) 84.3% and 99.6% and 85.8%; (compound 1 µM) 89.3% and 98.4% and 81.9%; (compound 3.16 µM) 85.7% and 102% and 88.1%; (compound 10 µM) 80% and 77.6% and 68.8%. Further, the IC50 (curve of compound) was above 10000 nM.
In the case of `Nc1ccn(C2OC(CO)C(O)C2(F)F)c(=O)n1` (stereo not given) + Cc1cnc(CNC(=O)c2c(=O)c3ccc(N4CCCN(C)CC4)nc3n3c2sc2ccccc23)cn1, the IC50 was 42.2 nM under setting [1]; 33.1 nM under setting [2]; 42.6 nM under setting [3]; below 31.6 nM under setting [4]; below 31.6 nM under setting [5]; below 31.6 nM under setting [6]. The viability, T/C is, setting by setting: under setting [7], 60.9%; (second compound 0.0316 µM, first compound 0.1 µM) 17.7%; under setting [8], 11%; (second compound 0.0316 µM, first compound 1 µM) 8.82%; (second compound 0.0316 µM, first compound 3.16 µM) 8.83%; (second compound 0.0316 µM, first compound 10 µM) 9.73%. For the same compound, the viability, T/C is, setting by setting: under setting [9], 51.1%; (second compound 0.1 µM, first compound 0.1 µM) 24.9%; under setting [10], 7.73%; (second compound 0.1 µM, first compound 1 µM) 11.8%; (second compound 0.1 µM, first compound 3.16 µM) 11.2%; (second compound 0.1 µM, first compound 10 µM) 12.9%. In addition, the viability, T/C is 60.3% under setting [11]; 22% (second compound 0.316 µM, first compound 0.1 µM); 10.2% under setting [12]; 10.3% (second compound 0.316 µM, first compound 1 µM); 11.5% (second compound 0.316 µM, first compound 3.16 µM); 11.2% (second compound 0.316 µM, first compound 10 µM). Besides, the viability, T/C reads like this: under setting [13], 40.8%; (second compound 1 µM, first compound 0.1 µM) 19.7%; under setting [14], 11.4%; (second compound 1 µM, first compound 1 µM) 11.6%; (second compound 1 µM, first compound 3.16 µM) 12.7%; (second compound 1 µM, first compound 10 µM) 11.7%. For the same compound, the viability, T/C runs as follows: under setting [15], 43.6%; (second compound 3.16 µM, first compound 0.1 µM) 20.3%; under setting [16], 11.1%; (second compound 3.16 µM, first compound 1 µM) 9.17%; (second compound 3.16 µM, first compound 3.16 µM) 12.5%; (second compound 3.16 µM, first compound 10 µM) 12.6%. In addition, the viability, T/C was 37% under setting [17]; 24.6% (second compound 10 µM, first compound 0.1 µM); 10.4% under setting [18]; 10.4% (second compound 10 µM, first compound 1 µM); 11.1% (second compound 10 µM, first compound 3.16 µM); 9.2% (second compound 10 µM, first compound 10 µM).

The IC50 is the concentration needed to halve the response being measured. As a reminder, the viability, T/C is the ratio of treated to control.
